Measured values as given in patent publication US9175011B2, “Morpholino substituted urea or carbamate derivatives as MTOR inhibitors” (CELLZOME LIMITED, priority 2011, dated 2015).

Assays:
PI3K delta (PI3Kd) = molecular target: T1, PI3K delta (PI3Kd) (Homo sapiens, UniProt O00329); assay: kinobeads assay, PI3K delta; type: binding; settings: Jurkat cell lysate, read-out: Inhibition values (IC50) PI3Kd
T1 construct: Jurkat cells were homogenized in a Potter S homogenizer in lysis buffer; endogenous in cells; host or cells: Jurkat, clone E6-1 (ATCC TIB-152) lysate
Outline: (§1)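 IC50 values derive from dose-response curves of each kinase's capture, measured by specific-antibody dot blot and infrared detection after SDS elution. Compound competed with phenylthiazole and phenylmorpholin-chromen ligand beads for endogenous kinase in Jurkat lysate (5 mg/ml protein) during a three-hour cold-room incubation.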

PI3K gamma (PI3Kg) = molecular target: T2, PI3K gamma (PI3Kg) (Homo sapiens, UniProt P48736); assay: kinobeads assay, PI3K gamma; type: binding; settings: Jurkat cell lysate, read-out: Inhibition values (IC50) PI3Kg
T2 construct: Jurkat cells were homogenized in a Potter S homogenizer in lysis buffer; endogenous in cells; host or cells: Jurkat, clone E6-1 (ATCC TIB-152) lysate
Outline: as §1

[1] = molecular target: T3, DNA-dependent protein kinase (DNA-PK) (Homo sapiens, UniProt P78527); assay: kinobeads assay, DNA-PK; type: binding; settings: Jurkat cell lysate, read-out: Inhibition values (IC50) DNA-PK
T3 construct: Jurkat cells were homogenized in a Potter S homogenizer in lysis buffer; endogenous in cells; host or cells: Jurkat, clone E6-1 (ATCC TIB-152) lysate
Outline: as §1

PI3K beta (PI3Kb) = molecular target: T4, PI3K beta (PI3Kb) (Homo sapiens, UniProt P42338); assay: kinobeads assay, PI3K beta; type: binding; settings: Jurkat cell lysate, read-out: Inhibition values (IC50) PI3Kb
T4 construct: Jurkat cells were homogenized in a Potter S homogenizer in lysis buffer; endogenous in cells; host or cells: Jurkat, clone E6-1 (ATCC TIB-152) lysate
Outline: as §1

[2] = test system: S6RP serine-240/244 phosphorylation; assay: In vitro phospho-S6 cellular assay (HEK293T/17); type: cell-based; settings: Homo sapiens; HEK293T/17 cells, 2 hours, pS6RP Ser240/244; read-out: Inhibition values (IC50) pS6
Outline: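 HEK293T/17 cells in DMEM with 2% FCS were exposed to 8 compound concentrations (0.1% DMSO) for 2 h at 37 °C, then lysed. pS6RP Ser240/244 or pAkt Ser473 in the lysates was quantified by MSD sandwich electrochemiluminescence. IC50 was obtained by sigmoidal variable-slope nonlinear regression.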

mTOR = molecular target: T5, mTOR (Homo sapiens, UniProt P42345); assay: mTOR kinobeads assay (Jurkat cell lysate, dot blot detection); type: binding; settings: read-out: Inhibition values (IC50) mTor
T5 construct: Jurkat cells were homogenized in a Potter S homogenizer in lysis buffer; endogenous in cells; host or cells: Jurkat, clone E6-1 (ATCC TIB-152) lysate
Outline: as §1

PI3K alpha (PI3Kα) = molecular target: T6, PI3K alpha (PI3Kα) (Homo sapiens, UniProt P42336); assay: kinobeads assay, PI3K alpha; type: binding; settings: Jurkat cell lysate, read-out: Inhibition values (IC50) PI3Ka
T6 construct: Jurkat cells were homogenized in a Potter S homogenizer in lysis buffer; endogenous in cells; host or cells: Jurkat, clone E6-1 (ATCC TIB-152) lysate
Outline: as §1

T2 sequence (P48736 whole entry): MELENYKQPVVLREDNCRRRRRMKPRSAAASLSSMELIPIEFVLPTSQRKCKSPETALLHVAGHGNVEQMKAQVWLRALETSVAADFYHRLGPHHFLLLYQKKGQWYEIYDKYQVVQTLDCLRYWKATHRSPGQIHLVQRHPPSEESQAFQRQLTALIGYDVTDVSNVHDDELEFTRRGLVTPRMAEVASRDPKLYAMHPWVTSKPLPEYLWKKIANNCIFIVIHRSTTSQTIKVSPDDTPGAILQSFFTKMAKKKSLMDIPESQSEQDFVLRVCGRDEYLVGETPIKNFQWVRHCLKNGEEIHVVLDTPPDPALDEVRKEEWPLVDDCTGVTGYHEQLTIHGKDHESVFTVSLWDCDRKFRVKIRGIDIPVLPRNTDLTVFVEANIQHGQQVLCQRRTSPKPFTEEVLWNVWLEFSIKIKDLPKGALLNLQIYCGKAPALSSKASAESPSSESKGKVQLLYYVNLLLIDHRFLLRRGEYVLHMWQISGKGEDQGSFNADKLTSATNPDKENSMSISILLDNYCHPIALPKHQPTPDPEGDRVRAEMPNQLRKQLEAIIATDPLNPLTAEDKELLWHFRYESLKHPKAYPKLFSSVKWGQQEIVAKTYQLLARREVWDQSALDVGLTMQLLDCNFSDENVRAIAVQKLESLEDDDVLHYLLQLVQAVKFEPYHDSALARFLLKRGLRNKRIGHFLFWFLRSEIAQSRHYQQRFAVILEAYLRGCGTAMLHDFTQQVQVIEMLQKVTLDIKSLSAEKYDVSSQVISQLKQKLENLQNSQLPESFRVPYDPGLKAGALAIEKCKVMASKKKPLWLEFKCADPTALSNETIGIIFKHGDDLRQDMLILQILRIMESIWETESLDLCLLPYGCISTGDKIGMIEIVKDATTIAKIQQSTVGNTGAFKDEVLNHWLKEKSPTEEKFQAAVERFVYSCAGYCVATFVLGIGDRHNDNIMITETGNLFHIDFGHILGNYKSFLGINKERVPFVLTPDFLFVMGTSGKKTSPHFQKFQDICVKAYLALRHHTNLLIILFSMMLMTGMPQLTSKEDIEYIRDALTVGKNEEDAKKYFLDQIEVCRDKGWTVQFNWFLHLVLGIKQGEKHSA
T6 sequence (P42336 whole entry): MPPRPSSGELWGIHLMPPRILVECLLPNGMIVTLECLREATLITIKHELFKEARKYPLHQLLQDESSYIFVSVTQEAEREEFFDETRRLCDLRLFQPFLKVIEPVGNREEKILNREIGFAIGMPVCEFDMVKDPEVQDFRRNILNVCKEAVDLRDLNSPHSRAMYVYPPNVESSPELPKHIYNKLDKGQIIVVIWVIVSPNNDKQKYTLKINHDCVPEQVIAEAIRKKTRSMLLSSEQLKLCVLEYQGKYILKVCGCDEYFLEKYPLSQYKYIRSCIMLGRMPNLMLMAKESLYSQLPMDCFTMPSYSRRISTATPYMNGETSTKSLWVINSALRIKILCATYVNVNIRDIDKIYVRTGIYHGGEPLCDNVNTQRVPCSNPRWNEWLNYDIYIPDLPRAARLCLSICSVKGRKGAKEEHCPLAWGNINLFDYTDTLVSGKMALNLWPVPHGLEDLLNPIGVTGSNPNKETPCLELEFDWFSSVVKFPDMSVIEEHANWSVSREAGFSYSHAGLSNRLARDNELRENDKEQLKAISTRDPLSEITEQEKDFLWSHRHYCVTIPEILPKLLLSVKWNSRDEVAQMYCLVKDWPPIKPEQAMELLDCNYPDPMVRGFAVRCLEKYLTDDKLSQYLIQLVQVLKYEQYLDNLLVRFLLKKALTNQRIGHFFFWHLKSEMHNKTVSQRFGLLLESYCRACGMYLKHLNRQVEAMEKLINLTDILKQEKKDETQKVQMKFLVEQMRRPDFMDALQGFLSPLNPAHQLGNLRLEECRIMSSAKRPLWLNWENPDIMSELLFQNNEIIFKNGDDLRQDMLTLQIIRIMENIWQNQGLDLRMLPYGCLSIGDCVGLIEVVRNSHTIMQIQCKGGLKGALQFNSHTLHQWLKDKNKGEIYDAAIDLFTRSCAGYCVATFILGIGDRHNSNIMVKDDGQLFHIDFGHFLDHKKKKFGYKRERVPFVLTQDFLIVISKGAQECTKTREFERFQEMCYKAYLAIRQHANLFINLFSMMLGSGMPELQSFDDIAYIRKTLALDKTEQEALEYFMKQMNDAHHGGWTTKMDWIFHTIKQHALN
T6 sequence (P27986 whole entry partner): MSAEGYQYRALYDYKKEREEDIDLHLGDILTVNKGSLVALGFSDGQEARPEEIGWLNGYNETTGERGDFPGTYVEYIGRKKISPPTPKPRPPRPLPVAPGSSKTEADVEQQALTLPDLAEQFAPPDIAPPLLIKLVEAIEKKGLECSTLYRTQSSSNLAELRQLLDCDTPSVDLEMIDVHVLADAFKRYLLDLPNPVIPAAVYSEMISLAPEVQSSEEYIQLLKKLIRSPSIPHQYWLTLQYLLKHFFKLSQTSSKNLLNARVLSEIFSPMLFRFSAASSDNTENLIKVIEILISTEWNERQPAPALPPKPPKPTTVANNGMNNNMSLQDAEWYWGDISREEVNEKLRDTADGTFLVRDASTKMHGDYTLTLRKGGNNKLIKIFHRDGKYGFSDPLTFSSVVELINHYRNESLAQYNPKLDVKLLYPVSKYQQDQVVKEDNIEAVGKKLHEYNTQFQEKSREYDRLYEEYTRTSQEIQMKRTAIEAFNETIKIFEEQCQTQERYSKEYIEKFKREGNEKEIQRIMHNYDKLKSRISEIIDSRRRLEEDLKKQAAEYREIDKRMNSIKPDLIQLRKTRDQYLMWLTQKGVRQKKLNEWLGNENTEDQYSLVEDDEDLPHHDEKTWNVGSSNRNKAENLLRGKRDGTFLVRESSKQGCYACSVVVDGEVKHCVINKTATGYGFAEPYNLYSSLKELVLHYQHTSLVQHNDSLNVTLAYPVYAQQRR
T1 sequence (O00329 whole entry): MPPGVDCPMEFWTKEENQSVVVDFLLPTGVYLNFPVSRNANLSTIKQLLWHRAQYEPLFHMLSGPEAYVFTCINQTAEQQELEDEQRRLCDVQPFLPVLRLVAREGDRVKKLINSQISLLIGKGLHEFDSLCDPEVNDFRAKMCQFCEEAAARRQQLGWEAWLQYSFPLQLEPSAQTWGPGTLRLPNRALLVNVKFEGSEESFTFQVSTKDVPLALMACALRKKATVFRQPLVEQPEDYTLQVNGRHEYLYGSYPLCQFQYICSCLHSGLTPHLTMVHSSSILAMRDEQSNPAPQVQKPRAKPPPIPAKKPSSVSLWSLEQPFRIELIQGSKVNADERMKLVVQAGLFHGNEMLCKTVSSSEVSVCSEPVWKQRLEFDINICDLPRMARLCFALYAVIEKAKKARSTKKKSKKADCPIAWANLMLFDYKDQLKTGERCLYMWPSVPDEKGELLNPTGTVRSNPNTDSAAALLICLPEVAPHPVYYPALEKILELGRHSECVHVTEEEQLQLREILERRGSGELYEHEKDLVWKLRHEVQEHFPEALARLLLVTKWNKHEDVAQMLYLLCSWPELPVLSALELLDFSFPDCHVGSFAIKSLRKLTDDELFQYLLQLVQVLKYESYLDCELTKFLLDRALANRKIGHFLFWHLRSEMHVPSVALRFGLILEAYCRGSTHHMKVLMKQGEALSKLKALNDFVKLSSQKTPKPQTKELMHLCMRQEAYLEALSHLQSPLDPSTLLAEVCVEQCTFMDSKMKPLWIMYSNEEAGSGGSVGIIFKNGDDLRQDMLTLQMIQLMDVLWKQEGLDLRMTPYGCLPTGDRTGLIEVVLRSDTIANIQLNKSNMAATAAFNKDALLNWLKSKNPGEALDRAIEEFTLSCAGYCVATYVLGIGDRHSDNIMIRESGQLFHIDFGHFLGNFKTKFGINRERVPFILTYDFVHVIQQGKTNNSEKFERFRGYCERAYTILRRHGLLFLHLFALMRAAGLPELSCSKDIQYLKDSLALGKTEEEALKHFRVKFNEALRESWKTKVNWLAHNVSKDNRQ
T1 sequence (P27986 whole entry partner): as the sequence (P27986 whole entry partner) above
T4 sequence (P42338 whole entry): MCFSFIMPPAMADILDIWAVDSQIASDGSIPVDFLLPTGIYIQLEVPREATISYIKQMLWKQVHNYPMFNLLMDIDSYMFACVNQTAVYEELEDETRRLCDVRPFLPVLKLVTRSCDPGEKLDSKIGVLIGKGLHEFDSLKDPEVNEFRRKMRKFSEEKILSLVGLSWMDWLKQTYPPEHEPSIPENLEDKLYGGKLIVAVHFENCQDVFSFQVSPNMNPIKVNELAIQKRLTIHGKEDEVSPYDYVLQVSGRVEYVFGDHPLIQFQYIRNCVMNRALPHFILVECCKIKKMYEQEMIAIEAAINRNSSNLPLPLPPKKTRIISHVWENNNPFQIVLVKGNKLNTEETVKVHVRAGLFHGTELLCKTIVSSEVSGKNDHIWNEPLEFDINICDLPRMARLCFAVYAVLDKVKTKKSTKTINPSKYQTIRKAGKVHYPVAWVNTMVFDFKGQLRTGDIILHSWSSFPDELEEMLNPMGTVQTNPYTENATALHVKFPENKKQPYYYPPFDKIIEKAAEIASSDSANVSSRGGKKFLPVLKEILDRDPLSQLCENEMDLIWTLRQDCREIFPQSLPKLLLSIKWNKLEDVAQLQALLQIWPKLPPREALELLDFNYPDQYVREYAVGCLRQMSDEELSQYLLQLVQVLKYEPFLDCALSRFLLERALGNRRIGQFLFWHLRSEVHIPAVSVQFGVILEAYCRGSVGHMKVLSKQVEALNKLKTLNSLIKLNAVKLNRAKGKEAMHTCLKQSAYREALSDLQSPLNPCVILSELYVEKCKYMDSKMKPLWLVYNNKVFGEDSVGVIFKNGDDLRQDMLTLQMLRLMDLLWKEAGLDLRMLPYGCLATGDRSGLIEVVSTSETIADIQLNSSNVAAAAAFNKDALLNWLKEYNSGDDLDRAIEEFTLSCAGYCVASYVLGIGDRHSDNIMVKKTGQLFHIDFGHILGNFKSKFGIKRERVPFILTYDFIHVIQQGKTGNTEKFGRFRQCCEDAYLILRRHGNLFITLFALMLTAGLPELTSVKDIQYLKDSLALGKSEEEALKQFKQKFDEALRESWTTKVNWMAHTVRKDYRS
T4 sequence (P27986 whole entry partner): as the sequence (P27986 whole entry partner) above

IC50 (PI3K delta (PI3Kd)) | IC50 (PI3K gamma (PI3Kg)) | IC50 [1] | IC50 (PI3K beta (PI3Kb)) | IC50 [2] | IC50 (mTOR) | IC50 (PI3K alpha (PI3Kα)) | SMILES
> 10 µM | > 10 µM | > 10 µM | > 10 µM | < 0.1 µM | 0.1 to 1 µM | > 10 µM | C[C@H]1COCCN1c1nc(-c2ccc(NC(=O)NC3CC3(F)F)cc2)nc(-c2ccccc2S(C)(=O)=O)n1 (stereo partly drawn) [Example 29, 1-(2,2-difluorocyclopropyl)-3-(4-(4-((S)-3-methylmorpholino)-6-(2-(methylsulfonyl)phenyl)-1,3,5-triazin-2-yl)phenyl)urea]
> 10 µM | > 10 µM | > 10 µM | > 10 µM | 0.1 to 1 µM | 0.1 to 1 µM | > 10 µM | C[C@H]1COCCN1c1nc(-c2ccc(NC(=O)NC3CCOC3)cc2)nc(-c2ccccc2S(C)(=O)=O)n1 (stereo partly drawn) [Example 34, 1-(4-(4-((S)-3-methylmorpholino)-6-(2-(methylsulfonyl)phenyl)-1,3,5-triazin-2-yl)phenyl)-3-(tetrahydrofuran-3-yl)urea]
> 10 µM | > 10 µM | > 10 µM | > 10 µM | < 0.1 µM | 0.1 to 1 µM | > 10 µM | CCC1COCCN1c1nc(-c2ccc(NC(=O)NC3CC3)cc2)nc(-c2ccccc2S(C)(=O)=O)n1 (stereo not drawn) [Example 36, 1-cyclopropyl-3-(4-(4-(3-ethylmorpholino)-6-(2-(methylsulfonyl)phenyl)-1,3,5-triazin-2-yl)phenyl)urea]

More lines, now with the values behind:

SMILES | IC50 (PI3K delta (PI3Kd)) | IC50 (PI3K gamma (PI3Kg)) | IC50 [1] | IC50 (PI3K beta (PI3Kb)) | IC50 [2] | IC50 (mTOR) | IC50 (PI3K alpha (PI3Kα))
C[C@H]1COCCN1c1nc(-c2ccc(NC(=O)NCC(F)(F)F)cc2)nc(-c2ccccc2S(C)(=O)=O)n1 [Example 32, (S)-1-(4-(4-(3-methylmorpholino)-6-(2-(methylsulfonyl)phenyl)-1,3,5-triazin-2-yl)phenyl)-3-(2,2,2-trifluoroethyl)urea] | > 10 µM | > 10 µM | > 10 µM | > 10 µM | < 0.1 µM | 0.1 to 1 µM | > 10 µM
C[C@H]1COCCN1c1nc(-c2ccc(NC(=O)NCC(O)C(F)(F)F)cc2)nc(-c2ccccc2S(C)(=O)=O)n1 (stereo partly drawn) [Example 33, 1-(4-(4-((S)-3-methylmorpholino)-6-(2-(methylsulfonyl)phenyl)-1,3,5-triazin-2-yl)phenyl)-3-(3,3,3-trifluoro-2-hydroxypropyl)urea] | > 10 µM | > 10 µM | > 10 µM | > 10 µM | 0.1 to 1 µM | 0.1 to 1 µM | > 10 µM
C[C@H]1COCCN1c1nc(-c2ccc(NC(=O)Nc3ccncc3)cc2)nc(-c2ccccc2S(C)(=O)=O)n1 [Example 35, (S)-1-(4-(4-(3-methylmorpholino)-6-(2-(methylsulfonyl)phenyl)-1,3,5-triazin-2-yl)phenyl)-3-(pyridin-4-yl)urea] | > 10 µM | > 10 µM | > 10 µM | > 10 µM | < 0.1 µM | 0.1 to 1 µM | > 10 µM
